Literature values as cited in patent US20030109488A1, “Methods for treating dry eye” (Alcon, Inc., priority 2001, published 2003).

Tested on: human conjunctival epithelial cells
Conditions: background statement, no data given

For `CCCCC[C@H](O)/C=C/C=C\C/C=C\C/C=C\CCCC(=O)O` [15-HETE], the “secretion of mucin-1 (MUC-1)” value is given as “increase the secretion of mucin-1 (MUC-1)”.
